Source: patent US10618916B2, “Heterocyclic compounds as immunomodulators” (Incyte Corporation, priority 2018, dated 2020)
Where two headings read alike, the source gives them in different places.

Assays:
[1] = tested on: U2OS/PD-L1 cells and Jurkat-PD-1-SHP cells; experiment: Src homology region 2 domain-containing phosphatase (SHP) assay; format: cell-based
In short: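 U2OS/PD-L1 and Jurkat-PD-1-SHP cells (5000 each per well) were co-incubated with compound for 2 h at 37 °C in RPMI1640 with 1% FBS, 0.05% DMSO final. PathHunter chemiluminescence was read after 1 h at room temperature, and IC50 was fitted from percent of DMSO-control activity.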

PD-L1 = PD-L1 (Homo sapiens (Human), UniProt Q9NZQ7); experiment: PD-L1 whole blood internalization assay; format: cell-based; settings: 24 HR, PD-L1 expression on CD14+ cells, human interferon γ
Chain of PD-L1 (Q9NZQ7 19-290): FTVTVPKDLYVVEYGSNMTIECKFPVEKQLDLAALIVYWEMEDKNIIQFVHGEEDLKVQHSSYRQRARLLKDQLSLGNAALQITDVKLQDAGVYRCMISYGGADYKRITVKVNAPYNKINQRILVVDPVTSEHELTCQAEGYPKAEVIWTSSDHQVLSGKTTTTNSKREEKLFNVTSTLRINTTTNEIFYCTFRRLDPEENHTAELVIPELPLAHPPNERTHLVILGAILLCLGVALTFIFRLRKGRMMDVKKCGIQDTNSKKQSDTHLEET
Procedure: Example D. PD-L1 Whole Blood Internalization Assay
To determine PD-L1 internalization in human whole blood, normal human blood (Biological Specialty Corp, Colmar. Pa.) was incubated in the presence or absence of a concentration range of test compounds and 1 ng/ml human interferon γ (R&D Systems Inc. Minn. […] Blood was then stained with PD-L1 (MIH1, eBioscience; or BD Biosciences San Jose, Calif.), CD14 (Life Technologies, Carlsbad, Calif.) for 30 minutes in the dark at room temperature. Whole Blood/red cells were lysed/fixed (lysis buffer BD Biosciences) for 5 minutes at 37° C. in the dark and then centrifuged at 1600 RPM for 5 minutes. Cells were resuspended in Stain Buffer (BD Bioscience, San Jose, Calif.) and transferred into 96 well round bottom plates (Corning). Cells were gated on CD14+(BD Biosciences) and PD-L1 expression determined by mean fluorescence intensity (MFI) (BD LSRFortessa™ X-20). IC50 determination was performed by fitting the curve of compound percent inhibition versus the log of the compound concentration using the GraphPad Prism 7.0 software.

[2] = tested on: PD-L1 aAPC/CHO-K1 cells and Jurkat-PD-1-NFAT effector cells; experiment: Nuclear factor of activated T-cells (NFAT) assay; format: cell-based
In short: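 CHO-K1 cells expressing PD-L1 aAPC were co-cultured with Jurkat-PD-1-NFAT effector cells in RPMI 1640 with 1% FBS and compound (0.4% DMSO; top concentration 2 μM) for 24 h at 37 °C. Bio-Glo luminescence was read, fold induction normalised to DMSO wells, and EC50 fitted from percent of control compound activity.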

[3] = biological target: PD-1/PD-L1 protein/protein interaction (recombinant human PD-L1 and human PD-1) (Homo sapiens (Human), UniProt Q9NZQ7); experiment: Homogeneous Time-Resolved Fluorescence (HTRF) PD-1/PD-L1 binding assay
Chain of PD-1/PD-L1 protein/protein interaction (recombinant human PD-L1 and human PD-1) (Q9NZQ7 19-238): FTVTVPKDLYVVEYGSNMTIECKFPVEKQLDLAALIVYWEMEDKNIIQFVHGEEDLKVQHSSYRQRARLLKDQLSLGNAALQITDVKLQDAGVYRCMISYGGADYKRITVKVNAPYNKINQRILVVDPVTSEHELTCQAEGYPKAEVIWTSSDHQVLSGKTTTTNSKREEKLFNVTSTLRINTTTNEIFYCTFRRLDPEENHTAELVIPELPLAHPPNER
In short: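 Human PD-L1 (19-238, C-His; 10 nM final) and PD-1 (25-167, C-Fc; 3 nM final) preincubated 40 min with inhibitor in PBS pH 7.4, 0.05% Tween-20, 0.1% BSA, 1% DMSO, 25 °C. Eu-anti-human IgG (1 nM) and anti-His-APC (20 nM) added for 60 min; 665/620 nm ratio; IC50 from percent-control curves.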

SMILES | IC50 [1] | IC50 (PD-L1) | EC50 [2] | IC50 [3] | IC50 ([1]; Homo sapiens, U2OS) | EC50 ([2]; Cricetulus griseus, CHO-K1)
Cn1c(C(=O)Nc2cccc(-c3cccc(NC(=O)c4nc5c(n4C)CCN(C4CCC(O)CC4)C5)c3Cl)c2Cl)nc2c1CCN(CCC13CCC(C(=O)O)(CC1)C3)C2 (single isomer, unassigned) [60 (compound 2), 4-(2-(2-((2,2′-dichloro-3′-(5-(4-hydroxycyclohexyl)-1-methyl-4,5,6,7-tetrahydro-1H-imidazo[4,5-c]pyridine-2-carboxamido)-[1,1′-biphenyl]-3-yl)carbamoyl)-1-methyl-1,4,6,7-tetrahydro-5H-imidazo[4,5-c]pyridin-5-yl)ethyl)bicyclo[2.2.1]heptane-1-carboxylic Acid] | ≤ 10 nM | 10 to 100 nM | ≤ 10 nM | ≤ 5 nM | – | –
Cc1c(NC(=O)c2nc3c(n2C)CCN(C2CCC(O)CC2)C3)cccc1-c1cccc(NC(=O)c2nc3c(n2C)CCN(CCC24CCC(C(=O)O)(CC2)C4)C3)c1Cl (single isomer, unassigned) [61 (compound 1), 4-(2-(2-((2-chloro-3′-(5-(4-hydroxycyclohexyl)-1-methyl-4,5,6,7-tetrahydro-1H-imidazo[4,5-c]pyridine-2-carboxamido)-2′-methyl-[1,1′-biphenyl]-3-yl)carbamoyl)-1-methyl-1,4,6,7-tetrahydro-5H-imidazo[4,5-c]pyridin-5-yl)ethyl)bicyclo[2.2.1]heptane-1-carboxylic acid] | – | 10 to 100 nM | – | ≤ 5 nM | ≤ 10 nM | 10 to 100 nM
Cn1c(C(=O)Nc2cccc(-c3cccc(NC(=O)c4nc5c(n4C)CCN(CCC46CCC(C(=O)O)(CC4)C6)C5)c3Cl)c2Cl)nc2c1CCNC2 [Example 1, 4-(2-(2-((2,2′-dichloro-3′-(1-methyl-4,5,6,7-tetrahydro-1H-imidazo[4,5-c]pyridine-2-carboxamido)-[1,1′-biphenyl]-3-yl)carbamoyl)-1-methyl-1,4,6,7-tetrahydro-5H-imidazo[4,5-c]pyridin-5-yl)ethyl)bicyclo[2.2.1]heptane-1-carboxylic Acid] | – | ≤ 10 nM | – | ≤ 5 nM | ≤ 10 nM | 10 to 100 nM
Cn1c(C(=O)Nc2cccc(-c3cccc(NC(=O)c4nc5c(n4C)CCN(C4CCOCC4)C5)c3Cl)c2Cl)nc2c1CCN(CCC13CCC(C(=O)O)(CC1)C3)C2 [Example 2, 4-(2-(2-((2,2′-dichloro-3′-(1-methyl-5-(tetrahydro-2H-pyran-4-yl)-4,5,6,7-tetrahydro-1H-imidazo[4,5-c]pyridine-2-carboxamido)-[1,1′-biphenyl]-3-yl)carbamoyl)-1-methyl-1,4,6,7-tetrahydro-5H-imidazo[4,5-c]pyridin-5-yl)ethyl)bicyclo[2.2.1]heptane-1-carboxylic Acid] | – | 10 to 100 nM | – | ≤ 5 nM | ≤ 10 nM | 10 to 100 nM
Cn1c(C(=O)Nc2cccc(-c3cccc(NC(=O)c4nc5c(n4C)CCN(C4CCN(S(N)(=O)=O)CC4)C5)c3Cl)c2Cl)nc2c1CCN(CCC13CCC(C(=O)O)(CC1)C3)C2 [Example 8, 4-(2-(2-((2,2′-dichloro-3′-(1-methyl-5-(1-sulfamoylpiperidin-4-yl)-4,5,6,7-tetrahydro-1H-imidazo[4,5-c]pyridine-2-carboxamido)-[1,1′-biphenyl]-3-yl)carbamoyl)-1-methyl-1,4,6,7-tetrahydro-5H-imidazo[4,5-c]pyridin-5-yl)ethyl)bicyclo[2.2.1]heptane-1-carboxylic acid] | – | 100 to 500 nM | – | ≤ 5 nM | ≤ 10 nM | 10 to 100 nM
Cn1c(C(=O)Nc2cccc(-c3cccc(NC(=O)c4nc5c(n4C)CCN(Cc4cc[nH]n4)C5)c3Cl)c2Cl)nc2c1CCN(CCC13CCC(C(=O)O)(CC1)C3)C2 [Example 9, 4-(2-(2-((3′-(5-((1H-pyrazol-3-yl)methyl)-1-methyl-4,5,6,7-tetrahydro-1H-imidazo[4,5-c]pyridine-2-carboxamido)-2,2′-dichloro-[1,1′-biphenyl]-3-yl)carbamoyl)-1-methyl-1,4,6,7-tetrahydro-5H-imidazo[4,5-c]pyridin-5-yl)ethyl)bicyclo[2.2.1]heptane-1-carboxylic acid] | – | 10 to 100 nM | – | ≤ 5 nM | ≤ 10 nM | 10 to 100 nM
Cn1c(C(=O)Nc2cccc(-c3cccc(NC(=O)c4nc5c(n4C)CCN(C(CO)CO)C5)c3Cl)c2Cl)nc2c1CCN(CCC13CCC(C(=O)O)(CC1)C3)C2 [Example 10, 4-(2-(2-((2,2′-dichloro-3′-(5-(1,3-dihydroxypropan-2-yl)-1-methyl-4,5,6,7-tetrahydro-1H-imidazo[4,5-c]pyridine-2-carboxamido)-[1,1′-biphenyl]-3-yl)carbamoyl)-1-methyl-1,4,6,7-tetrahydro-5H-imidazo[4,5-c]pyridin-5-yl)ethyl)bicyclo[2.2.1]heptane-1-carboxylic acid] | – | 10 to 100 nM | – | ≤ 5 nM | ≤ 10 nM | 10 to 100 nM
Cn1c(C(=O)Nc2cccc(-c3cccc(NC(=O)c4nc5c(n4C)CCN(C[C@@H](O)CO)C5)c3Cl)c2Cl)nc2c1CCN(CCC13CCC(C(=O)O)(CC1)C3)C2 [Example 11, (R)-4-(2-(2-((2,2′-dichloro-3′-(5-(2,3-dihydroxypropyl)-1-methyl-4,5,6,7-tetrahydro-1H-imidazo[4,5-c]pyridine-2-carboxamido)-[1,1′-biphenyl]-3-yl)carbamoyl)-1-methyl-1,4,6,7-tetrahydro-5H-imidazo[4,5-c]pyridin-5-yl)ethyl)bicyclo[2.2.1]heptane-1-carboxylic acid] | – | 100 to 500 nM | – | 5 to 10 nM | 10 to 100 nM | 10 to 100 nM
Cn1c(C(=O)Nc2cccc(-c3cccc(NC(=O)c4nc5c(n4C)CCN(C[C@H](O)CO)C5)c3Cl)c2Cl)nc2c1CCN(CCC13CCC(C(=O)O)(CC1)C3)C2 [Example 12, (S)-4-(2-(2-((2,2′-dichloro-3′-(5-(2,3-dihydroxypropyl)-1-methyl-4,5,6,7-tetrahydro-1H-imidazo[4,5-c]pyridine-2-carboxamido)-[1,1′-biphenyl]-3-yl)carbamoyl)-1-methyl-1,4,6,7-tetrahydro-5H-imidazo[4,5-c]pyridin-5-yl)ethyl)bicyclo[2.2.1]heptane-1-carboxylic acid] | – | 10 to 100 nM | – | ≤ 5 nM | ≤ 10 nM | 10 to 100 nM
C[C@@H](O)CN1CCc2c(nc(C(=O)Nc3cccc(-c4cccc(NC(=O)c5nc6c(n5C)CCN(CCC57CCC(C(=O)O)(CC5)C7)C6)c4Cl)c3Cl)n2C)C1 [Example 13, (R)-4-(2-(2-((2,2′-dichloro-3′-(5-(2-hydroxypropyl)-1-methyl-4,5,6,7-tetrahydro-1H-imidazo[4,5-c]pyridine-2-carboxamido)-[1,1′-biphenyl]-3-yl)carbamoyl)-1-methyl-1,4,6,7-tetrahydro-5H-imidazo[4,5-c]pyridin-5-yl)ethyl)bicyclo[2.2.1]heptane-1-carboxylic Acid] | – | 10 to 100 nM | – | ≤ 5 nM | ≤ 10 nM | ≤ 10 nM
C[C@H](O)CN1CCc2c(nc(C(=O)Nc3cccc(-c4cccc(NC(=O)c5nc6c(n5C)CCN(CCC57CCC(C(=O)O)(CC5)C7)C6)c4Cl)c3Cl)n2C)C1 [Example 14, (S)-4-(2-(2-((2,2′-dichloro-3′-(5-(2-hydroxypropyl)-1-methyl-4,5,6,7-tetrahydro-1H-imidazo[4,5-c]pyridine-2-carboxamido)-[1,1′-biphenyl]-3-yl)carbamoyl)-1-methyl-1,4,6,7-tetrahydro-5H-imidazo[4,5-c]pyridin-5-yl)ethyl)bicyclo[2.2.1]heptane-1-carboxylic acid] | – | 10 to 100 nM | – | ≤ 5 nM | ≤ 10 nM | 10 to 100 nM
Cn1c(C(=O)Nc2cccc(-c3cccc(NC(=O)c4nc5c(n4C)CCN(CCC46CCC(C(=O)O)(CC4)C6)C5)c3Cl)c2Cl)nc2c1CCN(CCO)C2 [Example 15, 4-(2-(2-((2,2′-dichloro-3′-(5-(2-hydroxyethyl)-1-methyl-4,5,6,7-tetrahydro-1H-imidazo[4,5-c]pyridine-2-carboxamido)-[1,1′-biphenyl]-3-yl)carbamoyl)-1-methyl-1,4,6,7-tetrahydro-5H-imidazo[4,5-c]pyridin-5-yl)ethyl)bicyclo[2.2.1]heptane-1-carboxylic acid] | – | 10 to 100 nM | – | ≤ 5 nM | ≤ 10 nM | 10 to 100 nM
